{"source": "patent US20120245505A1", "about": "“INTRACAMERAL DEVICES FOR SUSTAINED DELIVERY” (priority 2009, published 2012)", "key": {"[1]": {"test_system": "glaucoma", "experiment": "Treatment of glaucoma with bimatoprost-coated intracameral implant", "type": "in vivo, human", "settings": "person, intracameral implant coated with sustained release formulation, after 2 weeks", "source_text": "They have previously received topical therapy, but to no avail. Their vision is worsening as time progresses. […] After 2 weeks, the IOP is reduced."}, "[2]": {"test_system": "age-related macular degeneration", "experiment": "Treatment of macular degeneration with bimatoprost-coated intracameral implant", "type": "in vivo, human", "settings": "person, end of 7-year follow up", "source_text": "A person has age-related macular degeneration and cataracts in both eyes. […] At the end of a 7-year follow up period the patient can have maintained vision in the both eyes of at least 20/32"}, "[3]": {"test_system": "iris", "settings": "topical latanoprost (XALATAN); cited from earlier work"}, "[4]": {"experiment": "Release of NaF from implanted intracameral device, HRA imaging", "type": "in vivo, New Zealand white (NZW) rabbit", "settings": "rabbit eye", "procedure": "FIGS. 11A-D illustrate a series of Heidelberg retina angiograph (HRA) images of diffusion from an implanted device. FIGS. 11A-D illustrate HRA images after 2 minutes, 5 minutes, 10 minutes and 20 minutes.\nA device in accordance with the present disclosure was loaded with sodium fluorescein (NaF) in a polymeric delivery implant. A New Zealand white (NZW) rabbit had this device implanted in the sub-Tenon's space with the inner port extending into the anterior chamber.\nFIG. 11 illustrates that in as little as 2 minutes after implantation, the NaF had begun to disperse into the anterior chamber. By 20 minutes, the NaF had substantially dispersed into most of the anterior chamber."}}, "data": [{"molecule": "CCNC(=O)CCC/C=C\\C[C@@H]1[C@@H](/C=C/[C@@H](O)CCc2ccccc2)[C@H](O)C[C@@H]1O", "note": "[bimatoprost]", "values": [{"measurement": "IOP", "setting": "[1]", "result": "reduced"}, {"measurement": "maintained vision in both eyes", "setting": "[2]", "result": "at least 20/32"}]}, {"molecule": "CC(C)OC(=O)CCC/C=C\\C[C@@H]1[C@@H](CC[C@@H](O)CCc2ccccc2)[C@H](O)C[C@@H]1O", "note": "[latanoprost]", "values": [{"measurement": "increase in brown pigment in the iris", "setting": "[3]", "result": "5-15 % of human eyes"}]}, {"molecule": "O=C([O-])c1ccccc1-c1c2ccc(=O)cc-2oc2cc([O-])ccc12.[Na+].[Na+]", "note": "[NaF, sodium fluorescein]", "values": [{"measurement": "time after implantation at which NaF had begun to disperse into the anterior chamber", "setting": "[4]; FIG. 11, HRA images", "result": "≤ 2", "unit": "min"}, {"measurement": "time by which NaF had substantially dispersed into most of the anterior chamber", "setting": "[4]; FIG. 11, HRA images", "result": "≤ 20", "unit": "min"}, {"measurement": "release of NaF into the anterior chamber (HRA imaging)", "setting": "[4]; device with polymeric delivery implant in sub-Tenon's space, inner port extending into anterior chamber", "result": "sustained-release of NaF into the anterior chamber"}]}]}
